# Entries after “also recorded” stand apart in the source; their conditions may differ. Residues, ends and D or L forms follow the SMILES beside them. *: point of attachment. Cbz = O=C(OCc1ccccc1)*
# Key:
# glutamine synthase = test: MG132 effect on glutamine synthase levels in GS (over)expressing erythroblasts, flow cytometry; format: cell-based, human; details: MG132 added at day 15, expression measured at day 19
# Description: To investigate the degree to which exogenous enzyme expression is retained during erythropoiesis, four different enzymes were expressed in CD34+ haematopoietic stem cells (using lentivirus) and subsequently differentiated to reticulocytes: glutamine synthase (FIG. 8), adenosine deaminase (FIG. 9), L-asparaginase (FIG. 10), and uricase (FIG. 11). The exogenous proteins Uricase (a bacterial enzyme), human L-asparaginase (ASP) and human […] (ADA) were tagged with c-Myc to facilitate measurement of expression during differentiation by flow cytometry and western blot. GAPDH is an endogenous enzyme which was also blotted for in some cases. For human glutamine synthetase (GS) an antibody specific for this protein was used to detect expression by flow cytometry. The bar graphs in FIGS. 8-11 show expression of indicated enzymes during differentiation as assessed by flow cytometry across two different cultures. Western blots illustrate expression of the enzymes in in vitro derived reticulocytes. To explore whether ubiquitination enhances GS enzyme retention at the end of the culture, MG132 (a ubiquitin inhibitor) was added at day 15 to the GS (over)expressing erythroblasts. Expression was measured at day 19 by flow cytometry.
# [1] = system: thymidine phosphorylase (TP); test: Effect of degradation inhibitors on TP expression in differentiating cTP cells; format: cell-based, human; details: day 14 cTP cells, 24 hours incubation; 10 μM leupeptin or 5 μM MG132
# Description: The substantial loss of TP enzyme expression during differentiation could mean that TP is being actively degraded during terminal differentiation. To test whether exogenous TP degradation during differentiation is due to ubiquitination or lysosomal degradation, we subjected the day 14 (orthochromatic erythrocytes) cTP cells to an ubiquitination inhibitor MG132, or a lysosomal degradation inhibitor, leupeptin (Tsubuki, S., et al., J Biochem, 1996, 119(3), p. 572-6; Hershko, A. and A. Ciechanover, Annu Rev Biochem, 1982, 51, p. 335-64). TP expression was first measured on day 14 and then 24 hours after incubation with inhibitors or the vehicle control.
# As previously described (Griffiths, R. E., et al., Blood, 2012. 119(26), p. 6296-306), CD34+ haemopoietic stem cells (HSC) here isolated from human blood donor mononuclear cells or from thawed cryopreserved cord blood units by magnetic bead separation according to manufacturer's instructions (Miltenyi Biotech Ltd, Bisley UK). CD34+ cells were grown at a density of 2×10^5 cells/ml using a base medium consisting of IMDM (Source BioScience) containing 3% (v/v) AB Serum, 2 mg/ml HSA, 10 μg/ml Insulin, 3U/ml heparin, 500 μg/ml transferrin and 3U/ml Epo. […] Cells where fixed with paraformaldehyde and analysed by flow cytometry.
# [2] = system: in vitro cultured erythroid cells; format: cell-based; details: 0.5 mM thymidine added early, e.g. Day 0 of differentiation; data not shown
# [3] = biological target: T1, thymidine phosphorylase (TP) (Homo sapiens, UniProt P19971); test: Thymidine supplementation of differentiation media, TP enzyme abundance in reticulocytes; format: cell-based
# T1 construct: expressed in transfected cells; host or cells: CD34+-derived cultured human erythroid progenitors (cTP) and BEL-A erythroid cells (bTP), lentiviral XLG3 vector
# T1 sequence (P19971 11-482): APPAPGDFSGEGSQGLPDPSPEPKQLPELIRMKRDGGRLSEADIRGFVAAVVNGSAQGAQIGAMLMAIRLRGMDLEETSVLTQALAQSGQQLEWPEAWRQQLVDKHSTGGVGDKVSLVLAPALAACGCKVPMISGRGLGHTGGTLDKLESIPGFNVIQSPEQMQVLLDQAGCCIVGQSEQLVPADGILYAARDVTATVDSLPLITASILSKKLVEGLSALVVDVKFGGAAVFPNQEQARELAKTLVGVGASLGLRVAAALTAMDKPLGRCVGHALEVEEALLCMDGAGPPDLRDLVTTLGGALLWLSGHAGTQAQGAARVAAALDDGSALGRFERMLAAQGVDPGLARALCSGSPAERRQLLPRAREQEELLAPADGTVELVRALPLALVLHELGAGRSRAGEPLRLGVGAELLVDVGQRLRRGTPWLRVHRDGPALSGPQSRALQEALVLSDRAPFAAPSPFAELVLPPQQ
# Description: After further examination of the molecular human TP structure we observed that the 2 ubiquitination sites that correspond with murine TP, would only be available for ubiquitination in the absence of substrate.
# Reticulocytes were identified by gating upon Hoechst-negative population.
SMILES,glutamine synthase levels in reticulocytes (glutamine synthase),effect on TP degradation during differentiation [1],cell death and differentiation [2],"TP enzyme abundance compared to standard differentiation media ([3]; bTP reticulocytes, 0.5 mM thymidine daily from day 6 (polychromatic erythroblast stage))","TP enzyme abundance compared to standard differentiation media ([3]; cTP reticulocytes, 0.5 mM thymidine daily from day 14 (polychromatic erythroblast stage))","concentration of active TP in the reticulocyte ([3]; thymidine added to the media, un-mutated ubiquitination site)"
CC(C)C[C@@H](C=O)NC(=O)[C@H](CC(C)C)NC(=O)[C@H](CC(C)C)NC(=O)OCc1ccccc1 [MG132] (Cbz-Leu-Leu-Leu-aldehyde),increases glutamine synthase levels in reticulocytes,protected TP from degradation during differentiation; also recorded: inhibition of degradation was observed,–,–,–,–
Cc1cn([C@H]2C[C@H](O)[C@@H](CO)O2)c(=O)[nH]c1=O [thymidine],–,–,increase in cell death and inhibition of differentiation,doubled,doubled,roughly double
CC(=O)N[C@@H](CC(C)C)C(=O)N[C@@H](CC(C)C)C(=O)N[C@H](C=O)CCCNC(=N)N [leupeptin],–,did not impair degradation,–,–,–,–

# Reference: patent publication US20220333077A1, “Product for Therapy and Methods” (The University of Bristol, priority 2019, published 2022)
